In publication PMC9960778, “Polymer-Antimicrobial Peptide Constructs with Tailored Drug-Release Behavior” (Pharmaceutics, 2023):
In brackets after ≈: the same amount, converted by molar mass. Starred links: 1 amine or outer side, 2 acyl side, 3 side chain; linkers in the order of their positions; H or OH if unused. Non-standard residues stand in square brackets, D forms with d. Residues, ends and D or L forms follow the SMILES beside them. No end group written: not given here. *: point of attachment. X1 = N=c1ccc2c(-c3ccccc3C(=O)*)c3ccc(N)c(S(=O)(=O)O)c3oc-2c1S(=O)(=O)O; NMeGABA = CN(CCCC(=O)[*:2])[*:1]

Columns and labels:
[1] = test system: Acinetobacter baumanii (CCM 2355); format: cell-based; conditions: A. baumanii (Gram-negative); Mueller-Hinton broth/PBS 1:1, 35 °C, OD 625 nm every 60 min for 20 h; MIC as molar concentration of PEP; mean of at least three independent experiments
Protocol: (§1) The antibacterial properties of HPMA-PEP constructs were tested against Acinetobacter baumanii (CCM 2355), Escherichia coli (CCM 4517), Staphylococcus epidermidis (CCM 2124), and Staphylococcus aureus (CCM 4516) (Czech Collection of Microorganisms, Brno, Czech Republic) in vitro. A single colony of the test microorganism was transferred into 5 mL of sterile broth (Luria-Bertani medium, Sigma) and cultivated overnight at 37 °C to prepare a bacterial test suspension in a double-concentrated Mueller-Hinton broth at a density equivalent to a 0.5 McFarland standard. Desired weight of lyophilized PEP or polymer-PEP was resuspended in sterile PBS and a concentration series was prepared. The bacterial suspension was then mixed with different concentrations of the PEP or polymer-PEP construct diluted in 1:1 in PBS and cultured at 35 °C. The bacterial growth was measured spectrophotometrically at 625 nm every 60 min for 20 h using an EON microplate spectrophotometer (Agilent Technologies, Santa Clara, CA, USA).
(§2) The MIC was determined as the lowest concentration of PEP or polymer-PEP construct without observable bacterial growth. MIC was calculated as the molar concentration of PEP. […] If the bacteria were absent after 24 h of incubation, it was termed MBC.

[2] = test system: Escherichia coli (CCM 4517); format: cell-based; conditions: E. coli (Gram-negative); Mueller-Hinton broth/PBS 1:1, 35 °C, OD 625 nm every 60 min for 20 h; MIC as molar concentration of PEP; mean of at least three independent experiments
Protocol: as §1, §2

[3] = test system: Staphylococcus epidermidis (CCM 2124); format: cell-based; conditions: S. epidermidis (Gram-positive); Mueller-Hinton broth/PBS 1:1, 35 °C, OD 625 nm every 60 min for 20 h; MIC as molar concentration of PEP; mean of at least three independent experiments
Protocol: as §1, §2

E. coli [4] = test: Fluorescent microscopy of labeled peptide/constructs with bacteria; format: cell-based, Escherichia coli; conditions: labeled sample added at amount corresponding to its MIC, spinning disc confocal, ex 488 nm, em 525 nm
Protocol: The densities of the fresh overnight bacterial cultures were adjusted to the 0.5 McFarland standard, and 100 µL was placed in a sterile 96-well plate. The plates were incubated at room temperature for 2 h before the amount of fluorescently labeled F-PEP or F-P-PEP construct corresponding to its MIC was added to the appropriate wells. Images were captured immediately using a spinning disc confocal microscope (Andor xD revolution) on the Olympus IX81 platform and analyzed with iQ3 software, the excitation wavelength was 488 nm and the emission wavelength was 525 nm.

S. aureus [5] = conditions: labeled sample added at amount corresponding to its MIC, spinning disc confocal, ex 488 nm, em 525 nm
Protocol: The densities of the fresh overnight bacterial cultures were adjusted to the 0.5 McFarland standard, and 100 µL was placed in a sterile 96-well plate. […] Images were captured immediately using a spinning disc confocal microscope (Andor xD revolution) on the Olympus IX81 platform and analyzed with iQ3 software, the excitation wavelength was 488 nm and the emission wavelength was 525 nm.

[6] = test system: Staphylococcus aureus (CCM 4516); format: cell-based; conditions: S. aureus (Gram-positive); Mueller-Hinton broth/PBS 1:1, 35 °C, OD 625 nm every 60 min for 20 h; MIC as molar concentration of PEP; mean of at least three independent experiments
Protocol: as §1, §2

cathepsin B = cathepsin B (Homo sapiens, UniProt P07858); format: in vitro ADME
Protocol: The enzymatic activity of cathepsin B was probed immediately before the release measurements as described previously. The enzymolysis was monitored by HPLC and the rate of PEP release was calculated from the area of the corresponding polymer peaks from the fluorescent detector (excitation 280 nm, emission 350 nm of Trp in PEP). The spontaneous hydrolysis and release of PEP were measured by HPLC in two different PBS buffers to mimic the bloodstream, pH 7.4 and pH 5.5, at 37 °C.

E. coli [7] = test: Transmission electron microscopy (TEM) of treated bacteria; format: cell-based, Escherichia coli; conditions: 2 × MIC, 2.5 h of incubation, negative staining
Protocol: (§3) Bacteria in the exponential growth phase were mixed with the PEP or polymer-PEP constructs at a concentration equivalent to 2×MIC. After 2.5 h of incubation, 10 µL of the suspension was placed on a copper carbon-coated electron microscopic copper grid (Sigma Aldrich, Saint Louis, MO, USA) and left to adhere for 10 min. Then, the grid was washed twice with dH2O and stained with 0.8% sodium silicotungstate (Agar Scientific, Stansted, UK), pH 7.4, for 40 s. The samples were analyzed using a JEOL JEM-1010 instrument (JEOL Ltd., Tokyo, Japan) with an SIS MegaView III digital camera (Soft Imaging Systems) at acceleration voltage 80 kV and AnalySIS Software 2.0.

S. aureus [8] = test: as above; format: cell-based, Staphylococcus aureus; conditions: 2×MIC, 2.5 h of incubation, negative staining
Protocol: as §3

For “p(HPMA-co-Ma-β-Ala-ATTO-488-co-Ma-β-Ala-DBCO-azide-PEP) [F-P-PEP]”, the MIC [1] was 38.7 µM, the MIC [2] was 77.5 µM and the MIC [3] was 77.5 µM. The “Interaction / accumulation on bacterial cells (fluorescence microscopy)” value (from here on “Interaction / accumulation”) (E. coli [4]) was “accumulation of F-PEP and F-P-PEP on the bacterial cells” and the “Interaction / accumulation” value (S. aureus [5]) was “considerably less F-P-PEP accumulated on S. aureus”.

Compound GKWMKLLKKILK-NH2 [PEP] has an MIC [1] of 5 µM, an MIC [2] of 5 µM and an MIC [6] of 10 µM. It also gave an MIC [3] of 3.4 µM.

With “p(HPMA-co-Ma-β-Ala-DBCO-ValCit-PEP) [P-ValCit-PEP, enzymatically cleavable polymer-PEP construct, ValCit spacer]” the MIC [1] was 16.8 µM, the MIC [2] was 134 µM and the “PEP release in contact with cathepsin B” value (cathepsin B) was “not releasing the PEP”.

“p(HPMA-co-Ma-β-Ala-DBCO-azide-PEP) [P-PEP, non-cleavable polymer-PEP construct, control system]” gave an MIC [1] of 9.3 µM, an MIC [2] of 74.1 µM and an MIC [3] of 14.8 µM. For the same compound, the “Effect on bacterial cell morphology (TEM)” value (E. coli [7]) was “induced cell morphological changes” and the “Effect on bacterial cell morphology (TEM)” value (S. aureus [8]) was “induced cell morphological changes, cell wall disruption and leakage of the cytoplasm”.

Compound `CC[C@H](C)[C@H](NC(=O)[C@H](CCCCN)NC(=O)[C@H](CCCCN)NC(=O)[C@H](CC(C)C)NC(=O)[C@H](CC(C)C)NC(=O)[C@H](CCCCN)NC(=O)[C@H](CCSC)NC(=O)[C@H](Cc1c[nH]c2ccccc12)NC(=O)[C@H](CCCCN)NC(=O)CNC(=O)CCCN(C)C(=O)c1ccccc1-c1c2ccc(=N)c(S(=O)(=O)O)c-2oc2c(S(=O)(=O)O)c(N)ccc12)C(=O)N[C@@H](CC(C)C)C(=O)N[C@@H](CCCCN)C(N)=O` [F-PEP] (X1-[NMeGABA]GKWMKLLKKILK-NH2) has an MIC [1] of 36.5 µM (≈ 75.1 µg/mL), an MIC [2] of 18.2 µM (≈ 37.4 µg/mL) and an MIC [6] of 72.9 µM (≈ 150 µg/mL). The MIC [3] was 29.2 µM (≈ 60.1 µg/mL) and the “Interaction / accumulation” value (E. coli [4]) was “accumulation of F-PEP and F-P-PEP on the bacterial cells”.
